# Test results reported in PubChem BioAssay (NCI).
#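 Tested at 5 concentrations; 48 h exposure; 96-well plates; endpoints linearly interpolated, else capped at highest concentration. Abbreviation: GI50, concentration required for 50% inhibition of growth. At the TGI there is no net growth.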
# System: UACC-257 melanoma
# Assay: inhibition of tumour cell growth, NCI panel, 48 h
Structure (SMILES),GI50 [µM],TGI [µM]
Cn1cc(C2=C(c3cn(C)c4c(N)cccc34)C(=O)NC2=O)c2ccccc21,4.76,> 25
O=[N+]([O-])c1ccc2nnnn2c1,,> 100

# System: NCI/ADR-RES ovarian
# Assay: inhibition of tumour cell growth, NCI panel, 48 h
Structure (SMILES),GI50 [µM],TGI [µM]
COc1ccc(-n2c(SCc3cc(OC)c(OC)c(OC)c3)nc3ccc(C)cc3c2=O)cc1,3.71,> 100
COc1cccc(N=Cc2c3ccccc3c(=O)n3c2oc2ccccc23)c1,11.6,64.3
Cn1cc(C2=C(c3cn(C)c4c(N)cccc34)C(=O)NC2=O)c2ccccc21,2.02,> 25
O=[N+]([O-])c1ccc2nnnn2c1,,> 100

# System: SF-295 CNS
# Assay: inhibition of tumour cell growth, NCI panel, 48 h
Structure (SMILES),GI50 [µM],TGI [µM]
COc1ccc(-n2c(SCc3cc(OC)c(OC)c(OC)c3)nc3ccc(C)cc3c2=O)cc1,4.36,> 100
COc1cccc(N=Cc2c3ccccc3c(=O)n3c2oc2ccccc23)c1,4.53,30.1
Cn1cc(C2=C(c3cn(C)c4c(N)cccc34)C(=O)NC2=O)c2ccccc21,0.898,> 11.6
O=[N+]([O-])c1ccc2nnnn2c1,,> 100

# System: LOX IMVI melanoma
# Assay: inhibition of tumour cell growth, NCI panel, 48 h
Structure (SMILES),GI50 [µM],TGI [µM]
COc1ccc(-n2c(SCc3cc(OC)c(OC)c(OC)c3)nc3ccc(C)cc3c2=O)cc1,17.2,> 100
COc1cccc(N=Cc2c3ccccc3c(=O)n3c2oc2ccccc23)c1,5.13,30.3
Cn1cc(C2=C(c3cn(C)c4c(N)cccc34)C(=O)NC2=O)c2ccccc21,1.94,> 25
O=[N+]([O-])c1ccc2nnnn2c1,,35.8

# System: K-562 leukemia
# Assay: inhibition of tumour cell growth, NCI panel, 48 h
Structure (SMILES),GI50 [µM],TGI [µM]
COc1ccc(-n2c(SCc3cc(OC)c(OC)c(OC)c3)nc3ccc(C)cc3c2=O)cc1,3.89,> 100
COc1cccc(N=Cc2c3ccccc3c(=O)n3c2oc2ccccc23)c1,2.09,6.05
Cn1cc(C2=C(c3cn(C)c4c(N)cccc34)C(=O)NC2=O)c2ccccc21,0.385,> 25
O=[N+]([O-])c1ccc2nnnn2c1,,> 100

# System: SNB-75 CNS
# Assay: inhibition of tumour cell growth, NCI panel, 48 h
Structure (SMILES),GI50 [µM],TGI [µM]
COc1ccc(-n2c(SCc3cc(OC)c(OC)c(OC)c3)nc3ccc(C)cc3c2=O)cc1,2.76,> 100
COc1cccc(N=Cc2c3ccccc3c(=O)n3c2oc2ccccc23)c1,54.8,> 100
Cn1cc(C2=C(c3cn(C)c4c(N)cccc34)C(=O)NC2=O)c2ccccc21,0.352,2.63
O=[N+]([O-])c1ccc2nnnn2c1,,> 100

# System: SK-MEL-28 melanoma
# Assay: inhibition of tumour cell growth, NCI panel, 48 h
Structure (SMILES),GI50 [µM],TGI [µM]
COc1ccc(-n2c(SCc3cc(OC)c(OC)c(OC)c3)nc3ccc(C)cc3c2=O)cc1,25.9,> 100
COc1cccc(N=Cc2c3ccccc3c(=O)n3c2oc2ccccc23)c1,> 100,> 100
Cn1cc(C2=C(c3cn(C)c4c(N)cccc34)C(=O)NC2=O)c2ccccc21,3.43,> 20.6
O=[N+]([O-])c1ccc2nnnn2c1,,61.8

# System: CCRF-CEM leukemia
# Assay: inhibition of tumour cell growth, NCI panel, 48 h
Structure (SMILES),GI50 [µM],TGI [µM]
COc1ccc(-n2c(SCc3cc(OC)c(OC)c(OC)c3)nc3ccc(C)cc3c2=O)cc1,1.58,> 100
COc1cccc(N=Cc2c3ccccc3c(=O)n3c2oc2ccccc23)c1,4.58,73.2
Cn1cc(C2=C(c3cn(C)c4c(N)cccc34)C(=O)NC2=O)c2ccccc21,0.797,> 25

# System: PC-3 prostate
# Assay: inhibition of tumour cell growth, NCI panel, 48 h
Structure (SMILES),GI50 [µM],TGI [µM]
COc1ccc(-n2c(SCc3cc(OC)c(OC)c(OC)c3)nc3ccc(C)cc3c2=O)cc1,2.83,> 100
COc1cccc(N=Cc2c3ccccc3c(=O)n3c2oc2ccccc23)c1,3.81,39.6
Cn1cc(C2=C(c3cn(C)c4c(N)cccc34)C(=O)NC2=O)c2ccccc21,1.37,> 25
O=[N+]([O-])c1ccc2nnnn2c1,,> 100

# System: SK-OV-3 ovarian
# Assay: inhibition of tumour cell growth, NCI panel, 48 h
Structure (SMILES),GI50 [µM],TGI [µM]
COc1ccc(-n2c(SCc3cc(OC)c(OC)c(OC)c3)nc3ccc(C)cc3c2=O)cc1,9.74,> 100
COc1cccc(N=Cc2c3ccccc3c(=O)n3c2oc2ccccc23)c1,73.1,> 100
Cn1cc(C2=C(c3cn(C)c4c(N)cccc34)C(=O)NC2=O)c2ccccc21,1.22,> 20.1
O=[N+]([O-])c1ccc2nnnn2c1,,> 100

# System: NCI-H226 lung
# Assay: inhibition of tumour cell growth, NCI panel, 48 h
Structure (SMILES),GI50 [µM],TGI [µM]
COc1ccc(-n2c(SCc3cc(OC)c(OC)c(OC)c3)nc3ccc(C)cc3c2=O)cc1,> 100,> 100
Cn1cc(C2=C(c3cn(C)c4c(N)cccc34)C(=O)NC2=O)c2ccccc21,3.28,> 22.1
O=[N+]([O-])c1ccc2nnnn2c1,,47.3

# System: CAKI-1 renal
# Assay: inhibition of tumour cell growth, NCI panel, 48 h
Structure (SMILES),GI50 [µM],TGI [µM]
COc1ccc(-n2c(SCc3cc(OC)c(OC)c(OC)c3)nc3ccc(C)cc3c2=O)cc1,4.53,> 100
COc1cccc(N=Cc2c3ccccc3c(=O)n3c2oc2ccccc23)c1,2.92,11.5
Cn1cc(C2=C(c3cn(C)c4c(N)cccc34)C(=O)NC2=O)c2ccccc21,0.857,> 25
O=[N+]([O-])c1ccc2nnnn2c1,,63.1

# System: OVCAR-8 ovarian
# Assay: inhibition of tumour cell growth, NCI panel, 48 h
Structure (SMILES),GI50 [µM],TGI [µM]
COc1ccc(-n2c(SCc3cc(OC)c(OC)c(OC)c3)nc3ccc(C)cc3c2=O)cc1,> 100,> 100
COc1cccc(N=Cc2c3ccccc3c(=O)n3c2oc2ccccc23)c1,7.82,39
Cn1cc(C2=C(c3cn(C)c4c(N)cccc34)C(=O)NC2=O)c2ccccc21,2.85,> 25
O=[N+]([O-])c1ccc2nnnn2c1,,> 100

# System: ACHN renal
# Assay: inhibition of tumour cell growth, NCI panel, 48 h
Structure (SMILES),GI50 [µM],TGI [µM]
COc1ccc(-n2c(SCc3cc(OC)c(OC)c(OC)c3)nc3ccc(C)cc3c2=O)cc1,42.9,> 100
COc1cccc(N=Cc2c3ccccc3c(=O)n3c2oc2ccccc23)c1,7.11,30
Cn1cc(C2=C(c3cn(C)c4c(N)cccc34)C(=O)NC2=O)c2ccccc21,1.34,> 23.9
O=[N+]([O-])c1ccc2nnnn2c1,,> 100

# System: M14 melanoma
# Assay: inhibition of tumour cell growth, NCI panel, 48 h
Structure (SMILES),GI50 [µM],TGI [µM]
COc1ccc(-n2c(SCc3cc(OC)c(OC)c(OC)c3)nc3ccc(C)cc3c2=O)cc1,4.26,> 100
COc1cccc(N=Cc2c3ccccc3c(=O)n3c2oc2ccccc23)c1,12.2,> 100
